According to BindingDB's records for patent US10738057 (Incyte Corporation, 2020):

Legend:
[1] = molecular target: Phosphatidylinositol 4,5-bisphosphate 3-kinase catalytic subunit gamma isoform (Homo sapiens, UniProt P48736); assay: Scintillation Proximity Assay
Source text: PI3K-γ: [γ-33P]ATP (10 mCi/mL) and Wheat Germ Agglutinin (WGA) YSi SPA Scintillation Beads was purchased from PerkinElmer (Waltham, Mass.). Lipid kinase substrate, D-myo-Phosphatidylinositol 4,5-bisphosphate (PtdIns(4,5)P2)D (+)-sn-1,2-di-O-octanoylglyceryl, 3-O-phospho linked (PIP2), CAS 204858-53-7, was purchased from Echelon Biosciences (Salt Lake City, Utah). PI3Kγ (p110γ) Recombinant Human Protein was purchased from Life technology (Grand Island, N.Y.). ATP, MgCl2, DTT, EDTA, MOPS and CHAPS were purchased from SigmaAldrich (St. Louis, Mo.).The kinase reaction was conducted in polystyrene 384-well Greiner Bio-one white plate from Thermo Fisher Scientific in a final volume of 25 μL. Inhibitors were first diluted serially in DMSO and added to the plate wells before the addition of other reaction components. The final concentration of DMSO in the assay was 2%. The PI3Kγ assay was carried out at room temperature in 20 mM MOPS, pH 6.7, 10 mM MgCl2, 5 mM DTT and CHAPS 0.03%. Reactions were initiated by the addition of ATP, the final reaction mixture consisted of 20 μM PIP2, 2 μM ATP, 0.5 μCi [γ-33P] ATP, 13 nM PI3Kγ. Reactions were incubated for 120 min and terminated by the addition of 40 μL SPA beads suspended in quench buffer: 163 mM potassium phosphate pH 7.8, 20% glycerol, 25 mM EDTA. The final concentration of SPA beads is 1.0 mg/mL. After the plate sealing, plates were shaken overnight at room temperature and centrifuged at 1500 rpm for 10 min, the radioactivity of the product was determined by scintillation counting on Topcount (Perkin-Elmer).

[2] = molecular target: T1, Phosphatidylinositol 4,5-bisphosphate 3-kinase catalytic subunit delta isoform (Homo sapiens, UniProt O00329); assay: Scintillation Proximity Assay
T1 sequence (O00329 whole entry): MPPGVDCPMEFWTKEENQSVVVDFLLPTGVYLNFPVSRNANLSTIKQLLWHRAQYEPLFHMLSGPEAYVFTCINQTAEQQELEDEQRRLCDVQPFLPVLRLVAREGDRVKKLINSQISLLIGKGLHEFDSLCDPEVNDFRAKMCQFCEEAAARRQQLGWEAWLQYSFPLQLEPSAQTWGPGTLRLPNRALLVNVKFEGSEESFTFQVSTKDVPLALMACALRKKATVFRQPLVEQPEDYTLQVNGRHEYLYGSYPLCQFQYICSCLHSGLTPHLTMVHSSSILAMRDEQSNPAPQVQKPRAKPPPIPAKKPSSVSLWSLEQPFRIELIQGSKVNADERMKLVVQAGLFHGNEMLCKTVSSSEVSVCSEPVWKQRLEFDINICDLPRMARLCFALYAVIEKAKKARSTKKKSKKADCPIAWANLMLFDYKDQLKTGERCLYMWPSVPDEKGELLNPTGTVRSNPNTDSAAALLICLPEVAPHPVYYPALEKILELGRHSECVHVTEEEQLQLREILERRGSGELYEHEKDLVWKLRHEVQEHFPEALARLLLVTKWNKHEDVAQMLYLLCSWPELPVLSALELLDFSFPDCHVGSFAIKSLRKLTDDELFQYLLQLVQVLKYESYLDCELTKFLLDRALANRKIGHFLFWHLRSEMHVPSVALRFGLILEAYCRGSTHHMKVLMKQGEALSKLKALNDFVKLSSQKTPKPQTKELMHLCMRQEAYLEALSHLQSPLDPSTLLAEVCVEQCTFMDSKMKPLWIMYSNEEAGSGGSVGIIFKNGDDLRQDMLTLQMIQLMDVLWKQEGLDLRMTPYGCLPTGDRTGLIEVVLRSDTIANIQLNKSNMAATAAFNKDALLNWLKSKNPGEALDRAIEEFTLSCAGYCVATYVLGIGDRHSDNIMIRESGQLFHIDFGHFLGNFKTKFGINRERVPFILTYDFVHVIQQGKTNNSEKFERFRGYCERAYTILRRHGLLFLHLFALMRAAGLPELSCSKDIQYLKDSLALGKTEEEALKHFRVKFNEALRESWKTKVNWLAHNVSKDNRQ
Source text: PI3Kδ: [γ-33P]ATP (10 mCi/mL) and Wheat Germ Agglutinin (WGA) YSi SPA Scintillation Beads was purchased from PerkinElmer (Waltham, Mass.). Lipid kinase substrate, D-myo-Phosphatidylinositol 4,5-bisphosphate (PtdIns(4,5)P2)D (+)-sn-1,2-di-O-octanoylglyceryl, 3-O-phospho linked (PIP2), CAS 204858-53-7, was purchased from Echelon Biosciences (Salt Lake City, Utah). PI3Kδ (p110δ/p85α) Recombinant Human Protein was purchased from Eurofins. ATP, MgCl2, DTT, EDTA, MOPS and CHAPS were purchased from SigmaAldrich.The kinase reaction was conducted in polystyrene 384-well Greiner Bio-one white plate from Thermo Fisher Scientific in a final volume of 25 μL. Inhibitors were first diluted serially in DMSO and added to the plate wells before the addition of other reaction components. The final concentration of DMSO in the assay was 2%. The PI3Kδ assay was carried out at room temperature in 20 mM MOPS, pH 6.7, 10 mM MgCl2, 5 mM DTT and CHAPS 0.03%. Reactions were initiated by the addition of ATP, the final reaction mixture consisted of 20 μM PIP2, 2 μM ATP, 0.5 μCi [γ-33P] ATP, 3.4 nM PI3Kδ. Reactions were incubated for 120 min and terminated by the addition of 40 μL SPA beads suspended in quench buffer: 163 mM potassium phosphate pH 7.8, 20% glycerol, 25 mM EDTA. The final concentration of SPA beads is 1.0 mg/mL. After the plate sealing, plates were shaken overnight at room temperature and centrifuged at 1500 rpm for 10 min, the radioactivity of the product was determined by scintillation counting on Topcount.

Phosphatidylinositol 4,5-bisphosphate 3-kinase catalytic subunit gamma isoform, sequence (P48736 whole entry, canonical isoform): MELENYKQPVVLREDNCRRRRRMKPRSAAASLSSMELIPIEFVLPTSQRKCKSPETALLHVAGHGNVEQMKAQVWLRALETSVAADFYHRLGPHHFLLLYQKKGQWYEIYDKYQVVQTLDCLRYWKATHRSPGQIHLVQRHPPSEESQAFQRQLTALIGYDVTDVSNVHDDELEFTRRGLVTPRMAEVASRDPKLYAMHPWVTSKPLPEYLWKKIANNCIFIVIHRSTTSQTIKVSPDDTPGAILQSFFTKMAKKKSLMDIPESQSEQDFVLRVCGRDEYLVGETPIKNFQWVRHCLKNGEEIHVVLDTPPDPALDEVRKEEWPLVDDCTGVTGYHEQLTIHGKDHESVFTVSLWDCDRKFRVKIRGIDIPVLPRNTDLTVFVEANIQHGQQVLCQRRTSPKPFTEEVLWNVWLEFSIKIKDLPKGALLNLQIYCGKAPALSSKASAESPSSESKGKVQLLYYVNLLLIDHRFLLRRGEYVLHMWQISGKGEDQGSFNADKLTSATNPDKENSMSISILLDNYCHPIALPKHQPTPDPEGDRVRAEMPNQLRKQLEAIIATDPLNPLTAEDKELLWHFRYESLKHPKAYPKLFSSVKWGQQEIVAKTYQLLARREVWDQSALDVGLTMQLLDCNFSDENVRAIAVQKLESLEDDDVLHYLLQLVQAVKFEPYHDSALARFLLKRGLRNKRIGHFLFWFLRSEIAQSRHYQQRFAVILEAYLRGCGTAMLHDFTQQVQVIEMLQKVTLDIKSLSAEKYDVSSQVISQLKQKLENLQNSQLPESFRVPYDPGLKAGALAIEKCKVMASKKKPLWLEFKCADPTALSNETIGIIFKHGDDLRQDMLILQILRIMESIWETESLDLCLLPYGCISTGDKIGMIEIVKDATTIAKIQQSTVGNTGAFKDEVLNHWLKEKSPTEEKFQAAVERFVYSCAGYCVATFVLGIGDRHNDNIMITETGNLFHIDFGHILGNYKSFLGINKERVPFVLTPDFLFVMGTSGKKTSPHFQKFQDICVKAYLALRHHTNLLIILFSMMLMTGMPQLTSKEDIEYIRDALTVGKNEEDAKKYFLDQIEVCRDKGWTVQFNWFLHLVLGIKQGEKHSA

Cc1ncc(-c2cn3c(-c4cc(C(C)C(F)(F)F)ccc4C)cnc3c(N)n2)s1 (stereo unspecified) [US10738057, Example 70]
IC50 [1]: < 0.1 µM | IC50 [2]: < 0.1 µM

Cc1ccc(C(C)C(F)(F)F)cc1-c1cnc2c(N)nc(-c3cnco3)cn12 (stereo unspecified) [US10738057, Example 71]
IC50 [1]: < 0.1 µM | IC50 [2]: < 0.1 µM

Cc1ccc(C(C)C(F)(F)F)cc1-c1cnc2c(N)nc(-c3cnn(C)c3)cn12 (stereo unspecified) [US10738057, Example 69]
IC50 [1]: < 0.1 µM | IC50 [2]: < 0.1 µM
